# In patent publication US20260374739A1, “SMALL MOLECULAR WEIGHT CHEMICAL COMPOUND TO ANTAGONIZE EPH-EPHRIN TETRAMERIZATION AND INHIBIT BIDIRECTIONAL SIGNALING” (THE BOARD OF REGENTS OF THE UNIVERSITY OF TEXAS SYSTEM, priority 2022, published 2026):
# Values joined by “and” are separate entries in the source; they are usually repeats but may differ in a detail not shown here. Equal values may be shown once.
# How the values were obtained:
# EphrinB2-EphB2 [1] = biological target: T1, EphrinB2-EphB2 (Homo sapiens, UniProt P29323); test: Octet 80 sec association/500 sec dissociation, immobilized human EphrinB2-Fc binding to soluble human EphB2-His; conditions: for EphB2 Inhibition Percent, Inhibition of Association ONLY: at 3.2 μM and 80 seconds; for EphB2 Inhibition Percent, Inhibition of Association ONLY / EphB2 Inhibition Percent, Inhibition of Association-Dissociation: immobilized human EphrinB2, 25 nM soluble human EphB2; for EphB2 Inhibition Percent, Inhibition of Association-Dissociation: at 3.2 μM and 580 seconds
# T1 construct: soluble human EphB1-His, EphB2-His, and EphB4-His ectodomains; commercially available human EphrinB1-Fc (EB1), EphrinB2-Fc (EB2), and EphrinB3-Fc (EB3) ectodomain proteins; purchased
# T1 sequence (P29323 19-543 limits assumed): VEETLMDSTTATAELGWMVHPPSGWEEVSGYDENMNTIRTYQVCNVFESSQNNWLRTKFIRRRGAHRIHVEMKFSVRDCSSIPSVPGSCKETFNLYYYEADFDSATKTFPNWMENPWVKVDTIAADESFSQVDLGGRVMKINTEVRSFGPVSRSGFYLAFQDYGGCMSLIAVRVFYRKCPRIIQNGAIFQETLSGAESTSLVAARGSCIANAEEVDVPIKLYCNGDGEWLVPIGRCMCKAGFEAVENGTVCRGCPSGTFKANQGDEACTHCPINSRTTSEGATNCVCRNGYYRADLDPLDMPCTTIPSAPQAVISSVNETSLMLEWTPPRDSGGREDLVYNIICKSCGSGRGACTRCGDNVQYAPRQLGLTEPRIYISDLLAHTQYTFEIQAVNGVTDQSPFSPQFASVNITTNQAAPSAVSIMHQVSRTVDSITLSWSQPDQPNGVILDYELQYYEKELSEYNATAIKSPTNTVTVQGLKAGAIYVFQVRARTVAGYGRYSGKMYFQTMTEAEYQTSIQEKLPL
# In short: (§1)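 EphrinB2-Fc captured on AHC biosensors, then soluble His-tagged EphB ectodomain (25 nM for % inhibition runs) associated 80 s and dissociated 500 s in PBS, 0.05% Tween-20, 1% DMSO ± compound. Compounds tested at 0.1–3.2 μM with a 10 μM max standard; IC50 from AUC of full traces or at 75 s and 135 s.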
# EphrinB2-EphB1 = biological target: T2, EphrinB2-EphB1 (Homo sapiens, UniProt P54762); test: Octet 80 sec association/500 sec dissociation, immobilized human EphrinB2-Fc binding to soluble human EphB1-His; conditions: immobilized human EphrinB2, 25 nM soluble human EphB1; for EphB1 Inhibition Percent, Inhibition of Association-Dissociation: at 3.2 μM and 580 seconds; for EphB1 Inhibition Percent, Inhibition of Association ONLY: at 3.2 μM and 80 seconds
# T2 construct: soluble human EphB1-His, EphB2-His, and EphB4-His ectodomains; commercially available human EphrinB1-Fc (EB1), EphrinB2-Fc (EB2), and EphrinB3-Fc (EB3) ectodomain proteins; purchased
# T2 sequence (P54762 18-540 limits assumed): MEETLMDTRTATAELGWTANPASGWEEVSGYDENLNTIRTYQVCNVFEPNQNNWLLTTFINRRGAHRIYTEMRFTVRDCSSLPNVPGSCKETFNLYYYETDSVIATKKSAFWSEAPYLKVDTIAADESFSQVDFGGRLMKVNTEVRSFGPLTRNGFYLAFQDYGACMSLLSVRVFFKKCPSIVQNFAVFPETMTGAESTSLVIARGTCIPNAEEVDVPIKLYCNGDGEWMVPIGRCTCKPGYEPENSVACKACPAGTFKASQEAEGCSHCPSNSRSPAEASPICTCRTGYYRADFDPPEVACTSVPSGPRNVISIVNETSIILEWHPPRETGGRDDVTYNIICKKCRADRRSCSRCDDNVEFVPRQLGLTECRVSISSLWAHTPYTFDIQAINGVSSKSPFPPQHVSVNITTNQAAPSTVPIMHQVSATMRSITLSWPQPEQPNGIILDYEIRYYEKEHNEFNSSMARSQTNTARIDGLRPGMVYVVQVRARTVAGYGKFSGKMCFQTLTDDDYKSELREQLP
# In short: as §1
# EphrinB2-EphB2 [2] = biological target: T1, EphrinB2-EphB2; test: Octet tetramerization inhibition, immobilized human EphrinB2 binding to 50 nM soluble human EphB2
compound,measurement,setting,value
"Oc1c(CN2CCCCC2)cc(Cl)c2cccnc12 [Compound 76, 5-chloro-7-(piperidin-1-ylmethyl)quinolin-8-ol, reference compound]","EphB2 Inhibition Percent, Inhibition of Association ONLY",EphrinB2-EphB2 [1],59.7% and 46.7%
same,"EphB2 Inhibition Percent, Inhibition of Association-Dissociation",EphrinB2-EphB2 [1],77.8% and 71.3%
same,"EphB1 Inhibition Percent, Inhibition of Association-Dissociation",EphrinB2-EphB1,51.5% and 43.1%
"Oc1ccc(CN2CCCCC2)c2cccnc12 [Compound 68, 5-(piperidin-1-ylmethyl)quinolin-8-ol, reference compound]","EphB2 Inhibition Percent, Inhibition of Association ONLY",EphrinB2-EphB2 [1],54.9%
same,"EphB2 Inhibition Percent, Inhibition of Association-Dissociation",EphrinB2-EphB2 [1],72.9%
same,"EphB1 Inhibition Percent, Inhibition of Association ONLY",EphrinB2-EphB1,28.3%
same,"EphB1 Inhibition Percent, Inhibition of Association-Dissociation",EphrinB2-EphB1,46.8%
"Oc1ccc(CN2CCOCC2)c2cccnc12 [Compound 1, 5-(morpholinomethyl)quinolin-8-ol]",inhibition of EphrinB2-EphB interactions,"EphrinB2-EphB2 [1]; 3.2 μM, EphB1, EphB2 and EphB4",generally less active towards all three interactions
same,tetramerization inhibitor activity,EphrinB2-EphB2 [2],only weak ability to inhibit formation of the EB2-EphB2 tetramer
same,IC50,"EphrinB2-EphB2 [2]; Absolute AUC/IC50, Table A, EphrinB2-EphB2",> 1.6 µM
same,IC50,"EphrinB2-EphB2 [2]; Absolute Association IC50 (300 sec), Table A, EphrinB2-EphB2",> 1.6 µM
same,IC50,"EphrinB2-EphB2 [2]; Absolute Dissociation IC50 (450 sec), Table A, EphrinB2-EphB2",> 1.6 µM
same,IC50,"EphrinB2-EphB2 [2]; Relative AUC/IC50, Table A, EphrinB2-EphB2, compound 7: association only",> 1.6 µM
same,IC50,"EphrinB2-EphB2 [2]; Relative Association IC50 (300 sec), Table A, EphrinB2-EphB2",> 1.6 µM
same,IC50,"EphrinB2-EphB2 [2]; Relative Dissociation IC50 (450 sec), Table A, EphrinB2-EphB2",> 1.6 µM
same,IC50,"EphrinB2-EphB2 [2]; tetramerization inhibitor IC50 (relative), association step, surmountable tetramer",> 1.6 µM
"COCc1cc(CN2CCN(C)CC2)c(O)c2ncccc12 [Compound 77, 5-(methoxymethyl)-7-((4-methylpiperazin-1-yl)methyl)quinolin-8-ol, reference compound]","EphB2 Inhibition Percent, Inhibition of Association ONLY",EphrinB2-EphB2 [1],5.4%
same,"EphB2 Inhibition Percent, Inhibition of Association-Dissociation",EphrinB2-EphB2 [1],35.1%
same,"EphB1 Inhibition Percent, Inhibition of Association ONLY",EphrinB2-EphB1,16.9%
same,"EphB1 Inhibition Percent, Inhibition of Association-Dissociation",EphrinB2-EphB1,35.0%
